These results are taken from patent publication US5637725A, “Substituted aryl and cycloalkyl imidazolones; a new class of GABA brain receptor ligands” (Neurogen Corporation, priority 1995, dated 1997).

A word on the Ki: it is the equilibrium dissociation constant of an inhibitor or competing ligand from its target. The low end stands for tighter binding, the high end for weaker binding.

In test [1] the test system is GABA receptor. Particulars: brain membranes; cited from earlier work.
Test [2] concerns the target GABAa receptor. Nature of the test: [3H]-RO15-1788 (Flumazenil) binding assay for GABAa receptor activity, rat cortical tissue. Particulars: 0.5 nM 3H-RO15-1788; rat cortical tissue homogenate; 30 min at 4° C.; nonspecific binding with 1.0 mM diazepam. The protocol: The pharmaceutical utility of compounds of this invention are indicated by the following assay for GABAa receptor activity.
Assays are carried out as described in Thomas and Tallman (J. Bio. Chem. 156: 9838-9842, J. Neurosci. 3: 433-440, 1983). Rat cortical tissue is dissected and homogenized in 25 volumes (w/v) of 0.05M Tris HCl buffer (pH 7.4 at 4° C.). The tissue homogenate is centrifuged in the cold (4°) at 20,000×g for 20'. The supernatant is decanted and the pellet is rehomogenized in the same volume of buffer and again centrifuged at 20,000×g. The supernatant is decanted and the pellet is frozen at -20° C. overnight. The pellet is then thawed and rehomogenized in 25 volume (original wt/vol) of buffer and the procedure is carried out twice. The pellet is finally resuspended in 50 volumes (w/vol of 0.05M Tris HCl buffer (pH 7.4 at […]).
Incubations contain […] of radioligand 0.5 nM (^3 H-RO15-1788 [^3 H-Flumazenil] specific activity 80 Ci/mmol), drug or blocker and buffer to a total volume of […]. Incubations are carried for 30 min at 4° C. then are rapidly filtered through GFB filters to separate free and bound ligand. Filters are washed twice with fresh 0.05M Tris HCl buffer (pH 7.4 at 4° C.) and counted in a liquid scintillation counter. […] diazepam is added to some tubes to determine nonspecific binding. Data are collected in triplicate determinations, averaged and % inhibition of total specific binding is calculated. Total Specific Binding=Total-Nonspecific. In some cases, the amounts of unlabeled drugs is varied and total displacement curves of binding are carried out. Data are converted to a form for the calculation of IC50 and Hill Coefficient (nH).

In the case of `CN1CCc2cc3c(cc2[C@H]1[C@@H]1OC(=O)c2c1ccc1c2OCO1)OCO3` [(+) bicuculline], in test [1], the “blockade of enhancement of benzodiazepine binding by GABA agonists” value is “blocked”.

On to `CN1CCc2cc3c(cc2[C@@H]1[C@H]1OC(=O)c2c1ccc1c2OCO1)OCO3` [(-) bicuculline], for which the “blockade of enhancement of benzodiazepine binding by GABA agonists” value in test [1] is listed as “much less active”.

In the case of `O=c1[nH]c2c(n1-c1nc3ccc(F)c(F)c3o1)CCCCC2` [Compound 1], affinity in test [2] was put at a Ki of 3 nM.

`O=c1[nH]c2c(n1-c1nc3ccc(F)cc3o1)CCCCC2` [Compound 2] showed a Ki in test [2] of 4.6 nM.

Compound `O=c1[nH]c2cc(F)ccc2n1-c1nc2cccc(F)c2o1` [Compound 3, 3-(2-(7-fluorobenzoxazyl))-6-fluorobenzimidazol-2-(1H)-one] returned an inhibition constant (Ki) in test [2] of 14 nM.

Turning to `O=c1[nH]c2cc(F)ccc2n1-c1nc2ccc(F)cc2o1` [Compound 4, 3-(2-(6-fluorobenzoxazyl))-6-fluorobenzimidazol-2-(1H)-one], the Ki in test [2] was found to be 5 nM.

In test [2], `O=c1[nH]c2c(n1-c1nc3ccc(F)c(F)c3o1)CCCC2` [Compound 5] gave a Ki of 21 nM.

Compound `COc1ccc2oc(-n3c4c([nH]c3=O)CCCC4)nc2c1` [Compound 6] came in with an inhibition constant (Ki) in test [2] of 81 nM.
